Test results from publication PMC3513416 (Bioorganic & medicinal chemistry letters, 2009).

Biological target: T1, taspase1 (Homo sapiens, UniProt Q9H6P5)
T1 sequence (Q9H6P5 1-233 limits assumed): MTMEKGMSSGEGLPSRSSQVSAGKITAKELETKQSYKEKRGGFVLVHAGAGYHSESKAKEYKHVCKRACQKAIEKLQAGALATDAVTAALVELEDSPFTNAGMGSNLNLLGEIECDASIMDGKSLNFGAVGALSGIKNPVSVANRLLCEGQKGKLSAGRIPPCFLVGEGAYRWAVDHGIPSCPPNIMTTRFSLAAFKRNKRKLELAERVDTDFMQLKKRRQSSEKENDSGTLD
T1 sequence (Q9H6P5 234-420 limits assumed): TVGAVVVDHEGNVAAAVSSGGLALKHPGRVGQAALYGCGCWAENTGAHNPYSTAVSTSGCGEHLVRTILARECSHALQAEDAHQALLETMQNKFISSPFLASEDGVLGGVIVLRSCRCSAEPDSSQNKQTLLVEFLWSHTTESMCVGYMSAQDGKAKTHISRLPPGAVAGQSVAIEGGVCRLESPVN
Experiment: Inhibition rates after different pre-incubation times
Assay type: biochemical
Details: different amounts of pre-incubation time

Ac-Ile-Ser-Gln-Leu-Asp-vs [yzm18]
time dependence of inhibition: inhibition was not time dependent
